In brackets after ≈: the same amount, converted by molar mass.
Experiment: physchem
Settings: for solubility: water, thermodynamic from solid
Procedure: Analysis of the blend was done and its solubility in water was analyzed (table 3).
All the tablets prepared as shown in table 8 were analyzed in water to check whether there is an enhancement in solubility of the drug when compared to the pure form (table 9).
The compressed tablets prepared according table 13 were analyzed in water to check whether there is any enhancement in solubility of the drug when compared to the pure form (table 14).
All the blends and tablets prepared according to table 15 were analyzed in water for any enhancement in solubility of the drug when compared to the pure form.
The capsules were further analyzed for water solubility of the active ingredient.
The solution was spray dried using a spray drier (Inlet temperature: 55-60° C., Aspirator: 90-100%).

solubility | Solubility of AFI/API in water | SMILES
0.1 µg/mL (≈ 0.262 µM) |  | Cc1ccc(-c2cc(C(F)(F)F)nn2-c2ccc(S(N)(=O)=O)cc2)cc1 [Experiment C-1, Celecoxib]
 | 0.0 µg/mL | COc1cc(/C=C/C(=O)CC(=O)/C=C/c2ccc(O)c(OC)c2)ccc1O [Experiment C-4, Curcumin]
3.6 µg/mL (≈ 11.9 µM) |  | O=c1c(O)c(-c2ccc(O)c(O)c2)oc2cc(O)cc(O)c12 [Experiment C-6, Quercetin]
21 µg/mL (≈ 64.9 µM) |  | Cc1ccc(S(=O)(=O)NC(=O)NN2CC3CCCC3C2)cc1 (centres unmarked) [Experiment C-8, Gliclazide]
240 µg/mL (≈ 1020 µM) |  | NC(=O)N1c2ccccc2C=Cc2ccccc21 [Experiment C-9, Carbamazepine]
